Data as given in patent publication US20260042764A1, “COMPOSITIONS AND METHODS FOR INHIBITION OF KRAS” (TheRas, Inc., priority 2022, published 2026).

What was measured:
GP2d cells (KRAS G12D) = experiment: Cell-based pERK HTRF assay in GP2d cell (Biological Example 2); conditions: GP2d (KRAS G12D) cells, pERK HTRF
Procedure, shortened: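 60 min compound, 0.25% DMSO, 9-pt half-log curve from 1 μM or 100 nM; DMEM/10% FBS.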

[1] = target: T1, Avi-KRAS G12R (1-169) GppNHp/RAF1 RBD-3xFLAG (52-151) (Homo sapiens, UniProt P01116, G12R); experiment: Raf1-KRAS G12R-GppNHP disruption HTRF assay (Biological Example 1); type: binding
T1 construct: Avi-KRAS G12R (1-169)
T1 sequence (P01116 1-169 isoform P01116-2 G12R): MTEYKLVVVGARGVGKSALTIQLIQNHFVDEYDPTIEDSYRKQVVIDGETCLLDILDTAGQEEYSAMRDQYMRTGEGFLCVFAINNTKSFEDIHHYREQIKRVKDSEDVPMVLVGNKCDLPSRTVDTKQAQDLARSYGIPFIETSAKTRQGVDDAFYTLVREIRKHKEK
Procedure, shortened: (§1)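 HTRF PPI disruption; buffer 50 mM Tris pH 7.5, 100 mM NaCl, 5 mM MgCl2, 0.1% BSA, 0.01% Tween, 10% DMSO. Protein mix 1 h RT shaking, reagent mix 1 h RT shaking. Data as % activity vs DMSO (100%).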

[2] = target: T2, Avi-KRAS G12V (1-169) GppNHp/RAF1 RBD-3xFLAG (52-151) (Homo sapiens, UniProt P01116, G12V); experiment: Raf1-KRAS G12V-GppNHP disruption HTRF assay (Biological Example 1); type: binding
T2 construct: Avi-KRAS G12V (1-169)
T2 sequence (P01116 1-169 isoform P01116-2 G12V): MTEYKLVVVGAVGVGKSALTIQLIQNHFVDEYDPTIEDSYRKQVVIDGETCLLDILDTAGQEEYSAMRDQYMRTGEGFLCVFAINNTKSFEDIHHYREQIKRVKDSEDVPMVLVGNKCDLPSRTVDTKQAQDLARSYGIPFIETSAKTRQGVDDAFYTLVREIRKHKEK
Procedure, shortened: as §1

SW620 cells (KRAS G12V) = experiment: Cell-based pERK HTRF assay in SW620 cell (Biological Example 4); conditions: pERK HTRF
Procedure, shortened: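 In SW620 cells grown in RPMI with 10% FBS, a 4 h compound treatment (0.25% DMSO, 9-point curve from 1 μM) preceded lysis. Phospho-ERK levels were then read by time-resolved FRET at 615 nm emission.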

[3] = target: T3, Avi-KRAS WT (1-169) GppNHp/RAF1 RBD-3xFLAG (52-151) (Homo sapiens, UniProt P01116); experiment: Raf1-KRAS WT-GppNHP disruption HTRF assay (Biological Example 1); type: binding
T3 construct: Avi-KRAS WT (1-169)
T3 sequence (P01116 1-169 isoform P01116-2): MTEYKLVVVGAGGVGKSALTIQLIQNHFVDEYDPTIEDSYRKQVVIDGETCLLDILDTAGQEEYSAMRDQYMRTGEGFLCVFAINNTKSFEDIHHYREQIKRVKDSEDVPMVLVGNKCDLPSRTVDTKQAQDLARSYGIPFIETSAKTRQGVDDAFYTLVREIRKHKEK
Procedure, shortened: as §1

[4] = target: T4, Avi-KRAS G12D (1-169) GppNHp/RAF1 RBD-3xFLAG (52-151) (Homo sapiens, UniProt P01116, G12D); experiment: Raf1-KRAS G12D-GppNHP disruption HTRF assay (Biological Example 1); type: binding
T4 construct: Avi-KRAS G12D (1-169)
T4 sequence (P01116 1-169 isoform P01116-2 G12D): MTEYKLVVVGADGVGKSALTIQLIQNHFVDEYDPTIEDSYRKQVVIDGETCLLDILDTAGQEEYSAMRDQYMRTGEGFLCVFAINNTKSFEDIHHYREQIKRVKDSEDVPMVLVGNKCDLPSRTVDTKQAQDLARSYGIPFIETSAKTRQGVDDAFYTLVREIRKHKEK
Procedure, shortened: as §1

[5] = KRAS G12R, GppNHp-loaded, class symbols
[6] = KRAS G12V, GppNHp-loaded, class symbols
[7] = Homo sapiens, SW-620, SW620 (KRAS G12V) cells, class symbols
[8] = KRAS WT, GppNHp-loaded, class symbols
[9] = KRAS G12D, GppNHp-loaded, class symbols
[10] = Homo sapiens, SW-620, SW620 (KRAS G12V) cells
[11] = KRAS G12R, GppNHp-loaded, Table 11
[12] = KRAS G12V, GppNHp-loaded, Table 11
[13] = KRAS WT, GppNHp-loaded, Table 11
[14] = KRAS G12D, GppNHp-loaded, Table 11

IC50 (GP2d cells (KRAS G12D); GP2d, class symbols) | IC50 [1, 5] | IC50 [2, 6] | IC50 (SW620 cells (KRAS G12V); [7]) | IC50 [3, 8] | IC50 [4, 9] | IC50 (GP2d cells (KRAS G12D); GP2d) | IC50 ([1]; KRAS G12R-GppNHp/RAF1 RBD HTRF) | IC50 ([2]; KRAS G12V-GppNHp/RAF1 RBD HTRF) | IC50 (SW620 cells (KRAS G12V); [10]) | IC50 ([3]; KRAS WT-GppNHp/RAF1 RBD HTRF) | IC50 ([4]; KRAS G12D-GppNHp/RAF1 RBD HTRF) | also measured | SMILES
< 100 nM | < 100 nM | < 100 nM | < 100 nM | < 100 nM | < 100 nM | – | – | – | – | – | – | – | CCN(c1nc(OC[C@@]23CCCN2C[C@H](F)C3)nc2c(F)c(-c3ccc(F)c4sc(N)c(C#N)c34)c(C(F)(F)F)cc12)[C@H]1CCN(C(=O)[C@@H]2C[C@H]2C)C1 (atropisomer, axis not shown) [Compound 690]
– | – | – | – | – | – | < 100 nM | < 100 nM | 100 to 1000 nM | < 100 nM | 100 to 1000 nM | < 100 nM | – | CCN(c1nc(OC[C@@]23CCCN2C[C@H](F)C3)nc2c(F)c(-c3ccc(F)c4sc(N)c(C#N)c34)c(C(F)(F)F)cc12)[C@@H]1CCN(C(=O)N(C)C)[C@@H]1C [Compound 488]
– | – | – | – | – | – | – | 1000 to 10000 nM | 1000 to 10000 nM | – | 1000 to 10000 nM | 100 to 1000 nM | IC50 (GP2d cells (KRAS G12D)): 100 to 1000 nM; IC50 (SW620 cells (KRAS G12V); SW620 (KRAS G12V) cells): 100 to 1000 nM | N#Cc1c(N)sc2c(F)ccc(-c3c(C(F)(F)F)cc4c(N5CCCN6C(=O)CCC6C5)nc(OCC56CCCN5CC(F)C6)nc4c3F)c12 (stereo not drawn) [Compound 490]
< 100 nM | 100 to 1000 nM | 100 to 1000 nM | < 100 nM | 100 to 1000 nM | 100 to 1000 nM | – | – | – | – | – | – | – | CCN(c1nc(OC[C@@]23CCCN2C[C@H](F)C3)nc2c(F)c(-c3ccc(F)c4sc(N)c(C#N)c34)c(C(F)(F)F)cc12)[C@H]1C[C@@H]2CCOC(=O)N2C1 (atropisomer, axis not shown) [Compound 665]
< 100 nM | < 100 nM | 100 to 1000 nM | < 100 nM | 100 to 1000 nM | < 100 nM | – | – | – | – | – | – | – | CCN(c1nc(OC[C@@]23CCCN2C[C@H](F)C3)nc2c(F)c(-c3ccc(F)c4sc(N)c(C#N)c34)c(C(F)(F)F)cc12)[C@H]1CCN(C(=O)OC2CC(F)C2)C1 (stereo partly drawn) [Compound 776]
– | – | – | – | – | – | < 100 nM | – | – | 100 to 1000 nM | – | – | IC50 [1, 11]: 100 to 1000 nM; IC50 [2, 12]: 100 to 1000 nM; IC50 [3, 13]: 100 to 1000 nM; IC50 [4, 14]: 100 to 1000 nM | CC(=O)N1CC[C@@H](N(C)c2nc(OC[C@@]34CCCN3C[C@H](F)C4)nc3c(F)c(-c4ccc(F)c5sc(N)c(C#N)c45)c(C(F)(F)F)cc23)[C@@H]1C [Compound 190, 4-(4-(((2S,3R)-1-acetyl-2-methylpyrrolidin-3-yl)(methyl)amino)-8-fluoro-2-(((2R,7aS)-2-fluorotetrahydro-1H-pyrrolizin-7a(5H)-yl)methoxy)-6-(trifluoromethyl)quinazolin-7-yl)-2-amino-7-fluorobenzo[b]thiophene-3-carbonitrile]
< 100 nM | < 100 nM | < 100 nM | < 100 nM | < 100 nM | < 100 nM | – | – | – | – | – | – | – | CCN1C[C@@H]2C[C@H](N(CC)c3nc(OC[C@@]45CCCN4C[C@H](F)C5)nc4c(F)c(-c5ccc(F)c6sc(N)c(C#N)c56)c(C(F)(F)F)cc34)CN2C1=O (atropisomer, axis not shown) [Compound 762]
< 100 nM | < 100 nM | < 100 nM | < 100 nM | < 100 nM | < 100 nM | – | – | – | – | – | – | – | COC(=O)N1CC[C@H](N(C)c2nc(OC[C@@]34CCCN3C[C@H](F)C4)nc3c(F)c(-c4ccc(F)c5sc(N)c(C#N)c45)c(C(F)(F)F)cc23)C1 (atropisomer, axis not shown) [Compound 756]
< 100 nM | < 100 nM | < 100 nM | < 100 nM | 100 to 1000 nM | < 100 nM | – | – | – | – | – | – | – | N#Cc1c(N)sc2c(F)ccc(-c3c(C(F)(F)F)cc4c(N5CCn6nc(C(=O)N7CCCC7)cc6C5)nc(OCC56CCCN5CC(F)C6)nc4c3F)c12 (stereo not drawn) [Compound 627]
< 100 nM | 100 to 1000 nM | 100 to 1000 nM | < 100 nM | 100 to 1000 nM | 100 to 1000 nM | – | – | – | – | – | – | – | CCN(c1nc(OC[C@@]23CCCN2C[C@H](F)C3)nc2c(F)c(-c3ccc(F)c4sc(N)c(C#N)c34)c(C(F)(F)F)cc12)[C@@H]1C[C@H](C)N(C(=O)C2COC2)C1 (atropisomer, axis not shown) [Compound 630]
– | – | – | – | – | – | < 100 nM | < 100 nM | < 100 nM | < 100 nM | < 100 nM | < 100 nM | – | CCN(c1nc(OC[C@@]23CCCN2C[C@H](F)C3)nc2c(F)c(-c3ccc(F)c4sc(N)c(C#N)c34)c(C(F)(F)F)cc12)[C@H]1CCN(C(=O)COC)C1 (atropisomer, axis not shown) [Compound 561]
– | – | – | – | – | – | < 100 nM | 1000 to 10000 nM | 1000 to 10000 nM | < 100 nM | 100 to 1000 nM | 1000 to 10000 nM | – | CN1C[C@H](N(C)c2nc(OC[C@@]34CCCN3C[C@H](F)C4)nc3c(F)c(-c4ccc(F)c5sc(N)c(C#N)c45)c(C(F)(F)F)cc23)CCC1=O [Compound 441]
< 100 nM | < 100 nM | 100 to 1000 nM | < 100 nM | 100 to 1000 nM | < 100 nM | – | – | – | – | – | – | – | CCN(c1nc(OC[C@@]23CCCN2C[C@H](F)C3)nc2c(F)c(-c3ccc(F)c4sc(N)c(C#N)c34)c(C(F)(F)F)cc12)[C@H]1CCN(C(=O)C2CC(OC)C2)C1 (stereo partly drawn) [Compound 777]
– | – | – | – | – | – | < 100 nM | 100 to 1000 nM | 100 to 1000 nM | < 100 nM | < 100 nM | < 100 nM | – | N#Cc1c(N)sc2c(F)ccc(-c3c(C(F)(F)F)cc4c(N5CCO[C@@H](CO)C5)nc(OC[C@@]56CCCN5C[C@H](F)C6)nc4c3F)c12 [Compound 282]
– | – | – | – | – | – | 100 to 1000 nM | 1000 to 10000 nM | 1000 to 10000 nM | 100 to 1000 nM | 1000 to 10000 nM | 1000 to 10000 nM | – | CN(C)C(=O)c1cc2n(n1)CCN(c1nc(OC[C@@]34CCCN3C[C@H](F)C4)nc3c(F)c(-c4ccc(F)c5sc(N)c(C#N)c45)c(C(F)(F)F)cc13)CC2 [Compound 426]
< 100 nM | 100 to 1000 nM | 100 to 1000 nM | < 100 nM | 100 to 1000 nM | 100 to 1000 nM | – | – | – | – | – | – | – | C/C=C\C(=O)N1CC[C@@H](N(C)c2nc(OC[C@@]34CCCN3C[C@H](F)C4)nc3c(F)c(-c4ccc(F)c5sc(N)c(C#N)c45)c(C(F)(F)F)cc23)[C@H]1C [Compound 672]
< 100 nM | < 100 nM | < 100 nM | < 100 nM | < 100 nM | < 100 nM | – | – | – | – | – | – | – | CCN(c1nc(OC[C@@]23CCCN2C[C@H](F)C3)nc2c(F)c(-c3ccc(F)c4sc(N)c(C#N)c34)c(C(F)(F)F)cc12)[C@H]1CCN(C(=O)C2C[C@@H]2C)C1 (stereo partly drawn) [Compound 604]
< 100 nM | < 100 nM | < 100 nM | < 100 nM | < 100 nM | < 100 nM | – | – | – | – | – | – | – | CCN(c1nc(OC[C@@]23CCCN2C[C@H](F)C3)nc2c(F)c(-c3ccc(F)c4sc(N)c(C#N)c34)c(C(F)(F)F)cc12)[C@H]1C[C@H]2CN(C3CCC3)C(=O)N2C1 (atropisomer, axis not shown) [Compound 757]
– | – | – | – | – | – | < 100 nM | 100 to 1000 nM | 100 to 1000 nM | < 100 nM | 100 to 1000 nM | 100 to 1000 nM | – | CCN(c1nc(OC[C@@]23CCCN2C[C@H](F)C3)nc2c(F)c(-c3ccc(F)c4sc(N)c(C#N)c34)c(C(F)(F)F)cc12)[C@@H]1CCS(=O)(=O)C1 [Compound 477]
– | – | – | – | – | – | < 100 nM | – | – | 100 to 1000 nM | – | – | IC50 [1, 11]: 100 to 1000 nM; IC50 [2, 12]: 100 to 1000 nM; IC50 [3, 13]: 100 to 1000 nM; IC50 [4, 14]: 100 to 1000 nM | CC(=O)N(C)[C@@H]1CCN(c2nc(OC[C@@]34CCCN3C[C@H](F)C4)nc3c(F)c(-c4ccc(F)c5sc(N)c(C#N)c45)c(C(F)(F)F)cc23)C1 [Compound 207]
< 100 nM | < 100 nM | < 100 nM | < 100 nM | < 100 nM | < 100 nM | – | – | – | – | – | – | – | CCN(c1nc(OC[C@@]23CCCN2C[C@H](F)C3)nc2c(F)c(-c3ccc(F)c4sc(N)c(C#N)c34)c(C(F)(F)F)cc12)[C@@H]1CCN(C(=O)[C@@H]2CC2(F)F)[C@@H]1C (atropisomer, axis not shown) [Compound 808]
